pEC50: −log10 of the molar value.

Chain of soluble guanylate cyclase (human GUCYA3 and GUCYB3) overexpressed in CHO cells (Q02108 whole entry partner): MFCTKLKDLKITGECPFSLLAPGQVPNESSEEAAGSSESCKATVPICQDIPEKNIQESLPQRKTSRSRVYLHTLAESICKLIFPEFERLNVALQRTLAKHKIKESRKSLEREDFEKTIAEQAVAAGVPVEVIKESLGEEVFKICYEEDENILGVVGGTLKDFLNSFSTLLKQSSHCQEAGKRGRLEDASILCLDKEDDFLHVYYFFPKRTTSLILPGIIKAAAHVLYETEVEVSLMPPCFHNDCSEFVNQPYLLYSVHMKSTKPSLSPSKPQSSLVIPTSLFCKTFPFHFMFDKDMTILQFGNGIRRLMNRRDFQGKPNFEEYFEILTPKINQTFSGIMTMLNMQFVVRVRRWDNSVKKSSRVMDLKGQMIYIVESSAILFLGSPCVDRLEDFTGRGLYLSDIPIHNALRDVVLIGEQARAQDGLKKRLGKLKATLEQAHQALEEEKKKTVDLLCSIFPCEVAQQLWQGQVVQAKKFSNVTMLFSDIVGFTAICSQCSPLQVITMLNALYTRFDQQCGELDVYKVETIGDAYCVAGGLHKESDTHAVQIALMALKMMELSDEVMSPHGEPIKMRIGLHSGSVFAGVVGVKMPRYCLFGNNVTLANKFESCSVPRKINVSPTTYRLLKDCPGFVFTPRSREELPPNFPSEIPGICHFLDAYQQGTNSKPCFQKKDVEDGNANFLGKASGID
Chain of soluble guanylate cyclase (human GUCYA3 and GUCYB3) overexpressed in CHO cells (Q02153 whole entry): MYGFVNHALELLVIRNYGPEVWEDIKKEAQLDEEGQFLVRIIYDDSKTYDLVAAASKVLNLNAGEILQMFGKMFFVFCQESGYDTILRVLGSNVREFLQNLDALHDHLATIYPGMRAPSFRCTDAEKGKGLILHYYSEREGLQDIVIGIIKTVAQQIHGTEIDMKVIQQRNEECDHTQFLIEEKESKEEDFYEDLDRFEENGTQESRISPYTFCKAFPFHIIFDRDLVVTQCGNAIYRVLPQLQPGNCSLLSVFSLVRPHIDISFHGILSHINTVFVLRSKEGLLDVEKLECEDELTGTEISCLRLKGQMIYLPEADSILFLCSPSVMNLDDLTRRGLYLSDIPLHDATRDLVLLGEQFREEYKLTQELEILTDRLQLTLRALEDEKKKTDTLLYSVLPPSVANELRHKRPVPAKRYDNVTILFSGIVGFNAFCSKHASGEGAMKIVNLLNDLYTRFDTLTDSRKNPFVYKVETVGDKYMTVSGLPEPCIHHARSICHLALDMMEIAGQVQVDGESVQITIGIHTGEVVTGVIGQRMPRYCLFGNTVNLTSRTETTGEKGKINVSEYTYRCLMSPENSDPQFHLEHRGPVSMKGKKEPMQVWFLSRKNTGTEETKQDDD

This test deals with soluble guanylate cyclase (human GUCYA3 and GUCYB3) overexpressed in CHO cells (Homo sapiens (Human), UniProt Q02108+Q02153). Description: CHO cellular assay (cGMP production, Cisbio cGMP HTRF kit). Type of test: cell-based. As to conditions: CHO GUCY clone 8E10, cGMP production, assay buffer with 1 mM IBMX and 20 uM ODQ, 1 h room temperature; minimum quantification limit 0.5 nM (listed 0.5 nM means ≤0.5 nM); read-out: EC50. From the text:
Chinese hamster ovary (CHO) cells overexpressing soluble guanylate cyclase were generated to test the effect of sGC activators in a cellular context. Human cDNAs for GUCYA3 (RefSeq: NM_000856.3) and GUCYB3 (RefSeq: NM_000857.1) were amplified by PCR from a HUVEC (Human Umbilical Vein Endothelial Cells) cDNA library and cloned into mammalian expression vectors. CHO K1 cells (ATCC CCL-61) were transfected using Lipofectamine 2000 following manufacturer's instructions and stably expressing clones were identified by antibiotic selection. CHO GUCY clone 8E10 was used for subsequent experiments. Cells were seeded at a density of 3000 cells/well in white 384-well proxyplates (Perkin Elmer) and incubated overnight, then the medium was removed and cells were washed with assay buffer (HBSS, 0.1% BSA. 1 mM IBMX, 20 uM ODQ). sGC activators were serially diluted in DMSO, then diluted in assay buffer prior to adding to cells (10 ul/well, final DMSO concentration 0.5%). Cells were incubated with compounds for 1 h room temperature, then assayed for cGMP production using Cisbio cGMP HTRF kit (62GM2PEC) according to manufacturer's instructions. The EC50s are calculated based on the amount of cGMP interpolated from the standard curve, using a 4-parameter sigmoidal dose-response.
A general note: Time-resolved FRET reads energy transfer from a long-lived donor to a nearby acceptor.
Turning to `Cc1cc(C2CCN(C(=O)[C@H](C)O)CC2)ccc1NC1COc2cccc(-c3cccc(-n4ncc(C(=O)O)c4C)n3)c21` (single isomer, unassigned; (+)) [Example 35a], the pEC50 was at least 9.30. On to `Cc1cc(C2CCN(C(=O)C3CC3)CC2)ccc1CC1CCc2cccc(-c3cccc(-n4ncc(C(=O)O)c4C)n3)c21` (single isomer, unassigned; (+)) [Example 37. b). (+), (+)-1-(6-(3-(4-(1-(Cyclopropanecarbonyl)piperidin-4-yl)-2-methylbenzyl)-2,3-dihydro-1H-inden-4-yl)pyridin-2-yl)-5-methyl-1H-pyrazole-4-carboxylic acid], for which the pEC50 is at least 9.30. With `CCc1cc(CC2CCc3cccc(-c4cccc(-n5ncc(C(=O)O)c5CC)n4)c32)ccc1C1CCN(C(=O)[C@H](C)O)CC1` (single isomer, unassigned; (+)) [Example 39. b). (+)], the pEC50 was at least 9.30. For the molecule `CCc1cc(CC2CCc3cccc(-c4cccc(-n5ncc(C(=O)O)c5CC)n4)c32)ccc1C1CCN(C(=O)OC)CC1` (single isomer, unassigned; (+)) [Example 41. b). (+), (+)-5-ethyl-1-(6-(3-(3-ethyl-4-(1-(methoxycarbonyl)piperidin-4-yl)benzyl)-2,3-dihydro-1H-inden-4-yl)pyridin-2-yl)-1H-pyrazole-4-carboxylic acid], the pEC50 was at least 9.30. As for `CCc1c(C(=O)O)cnn1-c1cccc(-c2cccc3c2C(Cc2ccc(C4CCN(C(=O)OC)CC4)cc2C)CC3)n1` (single isomer, unassigned; (+)) [Example 42. b). (+), (+)-5-ethyl-1-(6-(3-(4-(1-(methoxycarbonyl)piperidin-4-yl)-2-methylbenzyl)-2,3-dihydro-1H-inden-4-yl)pyridin-2-yl)-1H-pyrazole-4-carboxylic acid], the figure is at least 9.30; as for `Cc1cc(C2CCN(C(=O)C3CCC3)CC2)ccc1NC1CCc2cccc(-c3cccc(-n4ncc(C(=O)O)c4C)n3)c21` (single isomer, unassigned; (+)) [Example 45a], at least 9.30; as for `Cc1cc(C2CCN(C(=O)[C@H](C)O)CC2)ccc1NC1CCc2cccc(-c3cccc(-n4ncc(C(=O)O)c4C)n3)c21` (single isomer, unassigned; (+)) [Example 47a], at least 9.30. Regarding `CCc1cc(NC2CCc3cccc(-c4cccc(-n5ncc(C(=O)O)c5CC)n4)c32)ccc1C1CCN(C(=O)[C@H](C)O)CC1` (single isomer, unassigned; (+)) [Example 48a], the pEC50 was at least 9.30.

Consider `CCC[C@H](O)C(=O)N1CCC(c2ccc(NC3CCc4cccc(-c5cccc(-n6ncc(C(=O)O)c6CC)n5)c43)cc2CC)CC1` (single isomer, unassigned; (+)) [Example 49a], for which the pEC50 was at least 9.30. With `CCc1cc(NC2CCc3cccc(-c4cccc(-n5ncc(C(=O)O)c5CC)n4)c32)ccc1C1CCN(C(=O)[C@@H](O)CC)CC1` (single isomer, unassigned; (+)) [Example 50a], the negative logarithm of the EC50 (pEC50) is at least 9.30.

On to `CCc1cc(NC2CCc3cccc(-c4cccc(-n5ncc(C(=O)O)c5CC)n4)c32)ccc1C1CCN(C(=O)OC(C)C)CC1` (single isomer, unassigned; (+)) [Example 51a], for which the pEC50 was at least 9.30. For `Cc1cc(C2CCN(C(=O)C3CC3)CC2)ccc1NC1CCc2cccc(-c3cccc(-n4ncc(C(=O)O)c4C(F)F)c3)c21` (single isomer, unassigned; (+)) [Example 55-2, (+)-1-(3-(3-((4-(1-(Cyclopropanecarbonyl)piperidin-4-yl)-2-methylphenyl)amino)-2,3-dihydro-1H-inden-4-yl)phenyl)-5-(difluoromethyl)-1H-pyrazole-4-carboxylic acid], the pEC50 is at least 9.30. Consider `Cc1cc(C2CCN(C(=O)CO)CC2)ccc1NC1CCc2cccc(-c3cccc(-n4ncc(C(=O)O)c4C(F)(F)F)c3)c21` (single isomer, unassigned; (+)) [Example 56], for which the negative-log EC50 (pEC50) is 9.00. Consider `Cc1cc(C2CCN(C(=O)C3CC3)CC2)ccc1NC1CCc2cccc(-c3cccc(-n4ncc(C(=O)O)c4CC(F)(F)F)n3)c21` (single isomer, unassigned; (+)) [Example 57, (+)-1-(6-(3-((4-(1-(Cyclopropanecarbonyl)piperidin-4-yl)-2-methylphenyl)amino)-2,3-dihydro-1H-inden-4-yl)pyridin-2-yl)-6-(2,2,2-trifluoroethyl)-1H-pyrazole-4-carboxylic Acid], for which the pEC50 was 9.00. With `CCc1nc(NC2CCc3cccc(-c4cccc(-n5ncc(C(=O)O)c5CC)n4)c32)ccc1C1CCN(C(=O)C2CC2)CC1` (single isomer, unassigned; (+)) [Example 63a, (+)-1-(6-(3-((5-(1-(Cyclopropanecarbonyl)piperidin-4-yl)-6-ethylpyridin-2-yl)amino)-2,3-dihydro-1H-inden-4-yl)pyridin-2-yl)-5-ethyl-1H-pyrazole-4-carboxylic Acid], the pEC50 was 8.70. For `Cc1cc(C2CCN(C(=O)C3CC3)CC2)ccc1OC1CCc2cccc(-c3cccc(-n4ncc(C(=O)O)c4C(F)(F)F)c3)c21` (single isomer, unassigned; (+)) [Example (+)-1. b), (+)-1-(3-(3-(4-(1-(cyclopropanecarbonyl)piperidin-4-yl)-2-methylphenoxy)-2,3-dihydro-1H-inden-4-yl)phenyl)-5-(trifluoromethyl)-1H-pyrazole-4-carboxylic acid], the pEC50 is at least 9.30. Consider `Cc1cc(C2CCN(C(=O)C3CC3)CC2)ccc1NC1CCc2cccc(-c3cccc(-n4ncc(C(=O)O)c4C(F)(F)F)n3)c21` (single isomer, unassigned; (+)) [Example (+)-8. b), (+)-1-(6-(3-((4-(1-(cyclopropanecarbonyl)piperidin-4-yl)-2-methylphenyl)amino)-2,3-dihydro-1H-inden-4-yl)pyridin-2-yl)-5-(trifluoromethyl)-1H-pyrazole-4-carboxylic acid], for which the negative logarithm of the EC50 (pEC50) was at least 9.30. As for `CCc1cc(CC2CCc3cccc(-c4cccc(-n5ncc(C(=O)O)c5CC)n4)c32)ccc1C1CCN(C(=O)C2CC2)CC1` (single isomer, unassigned; (-)) [38-1 (−), (−)-1-(6-(3-(4-(1-(cyclopropanecarbonyl)piperidin-4-yl)-3-ethylbenzyl)-2,3-dihydro-1H-inden-4-yl)pyridin-2-yl)-5-ethyl-1H-pyrazole-4-carboxylic acid], the figure is 7.77. As to `CCc1cc(CC2CCc3cccc(-c4cccc(-n5ncc(C(=O)O)c5C)n4)c32)ccc1C1CCN(C(=O)C2CC2)CC1` (single isomer, unassigned; (-)) [38-2 (−), (−)-1-(6-(3-(4-(1-(cyclopropanecarbonyl)piperidin-4-yl)-3-ethylbenzyl)-2,3-dihydro-1H-inden-4-yl)pyridin-2-yl)-5-methyl-1H-pyrazole-4-carboxylic acid], the negative-log EC50 (pEC50) is 8.05. Regarding `CCc1c(C(=O)O)cnn1-c1cccc(-c2cccc3c2C(Cc2ccc(C4CCN(C(=O)C5CC5)CC4)cc2C)CC3)n1` (single isomer, unassigned; (-)) [38-3 (−), (−)-1-(6-(3-(4-(1-(cyclopropanecarbonyl)piperidin-4-yl)-2-methylbenzyl)-2,3-dihydro-1H-inden-4-yl)pyridin-2-yl)-5-ethyl-1H-pyrazole-4-carboxylic acid], the pEC50 was 7.48. Take `CCC[C@H](O)C(=O)N1CCC(c2ccc(CC3CCc4cccc(-c5cccc(-n6ncc(C(=O)O)c6CC)n5)c43)cc2CC)CC1` (single isomer, unassigned; (-)) [40-1 (−)]: the pEC50 is 7.82. In the case of `CCc1c(C(=O)O)cnn1-c1cccc(-c2cccc3c2C(Cc2ccc(C4CCN(C(=O)[C@H](C)O)CC4)cc2C)CC3)n1` (single isomer, unassigned; (-)) [40-2 (−)], the pEC50 was 7.60. As to `CCC[C@H](O)C(=O)N1CCC(c2ccc(CC3CCc4cccc(-c5cccc(-n6ncc(C(=O)O)c6CC)n5)c43)c(C)c2)CC1` (single isomer, unassigned; (-)) [40-3 (−)], the negative-log EC50 (pEC50) was 7.31. For `Cc1cc2c(c(-c3cccc(-n4ncc(C(=O)O)c4C(F)(F)F)n3)c1)C(Nc1ccc(C3CCN(C(=O)C4CC4)CC3)cc1C)CC2` (single isomer, unassigned; (-)) [43 (−), (−)-1-(6-(3-((4-(1-(Cyclopropanecarbonyl)piperidin-4-yl)-2-methylphenyl)amino)-6-methyl-2,3-dihydro-1H-inden-4-yl)pyridin-2-yl)-5-(trifluoromethyl)-1H-pyrazole-4-carboxylic acid] the value was 7.64; for `Cc1cc(C2CCN(C(=O)C3CC3)CC2)ccc1NC1CCc2cccc(-c3cccc(-n4ncc(C(=O)O)c4C)c3)c21` (single isomer, unassigned; (-)) [44 (−), (−)-1-(3-(3-((4-(1-(cyclopropanecarbonyl)piperidin-4-yl)-2-methylphenyl)amino)-2,3-dihydro-1H-inden-4-yl)phenyl)-5-methyl-1H-pyrazole-4-carboxylic acid], 8.00.

In general, pEC50 refers to the EC50 on a negative log10 scale, so that one unit is a factor of ten.

These data come from patent publication US10550102B2, “Indane and indoline derivatives and the use thereof as soluble guanylate cyclase activators” (NOVARTIS AG, priority 2014, dated 2020).
